In article PMC12592502, “Unraveling the mechanisms behind the enhanced efficacy of β-lactam-based sideromycins” (Communications Biology, 2025):
Converted amounts (≈) assume the structure as drawn. “And” between values parts separate entries of the source, which are not always exact repeats. Equal entries are not always repeated. Where two headings read alike, the source gives them in different places. Marks after values point to notes of the source that are not given here.

Columns and labels:
[1] = system: E. coli ΔentE; assay: MIC, Keio mutant; type: cell-based, Escherichia coli
Procedure: (§1) All bacterial strains (see description and sources Table S1) were stored at −80 °C, and grown on tryptone soya agar (TSA) at 35 °C. The iron-deprived (ID)-MHBCA (cation-adjusted Muller-Hinton Broth, Becton Dickinson, Mississauga, ON, Canada) medium was prepared as reported by refs. [21],[50]. Briefly, MHBCA was treated with 10% Chelex® 50-100 mesh (Sigma) and stirred for 6 h at room temperature. The resin was removed by filtration. Divalent Ca^2+ (CaCl2), Mg^2+ (MgCl2), and Zn^2+(ZnSO4), were then added in the iron-depleted medium at 22, 12, and 1 μg/ml respectively. Finally, the pH was adjusted to 7.3, and the medium was sterilized with a 0.2-μm filter. Regular MHBCA (i.e., not treated with Chelex®) was used to compare the inhibitory activity of conjugates in iron-sufficient conditions.
(§2) Minimal inhibitory concentrations (MICs) were performed using a broth microdilution technique according to the Clinical and Laboratory Standards Institute (CLSI) guidelines. MICs were determined in MHBCA and in ID-MHBCA. To check the impact of β-lactamases, MICs in the presence of a β-lactamase inhibitor were also determined. The inhibitor was homogenized at 2X the final concentration and added to the bacterial inoculum just before distributing cells into the wells containing the drug dilutions. The final concentration of each inhibitor was 4 μg/mL for clavulanic acid (tested against K. pneumoniae) and 200 μg/mL for 3-aminophenylboronic acid (tested against P. aeruginosa and A. baumannii).

[2] = system: E. coli ΔfecA; assay: MIC, Keio mutant; type: cell-based, Escherichia coli
Procedure: as §1, §2

[3] = system: E. coli ΔfepA; assay: MIC, Keio mutant; type: cell-based, Escherichia coli
Procedure: as §1, §2

[4] = system: E. coli ΔtonB; assay: MIC, Keio mutant; type: cell-based, Escherichia coli
Procedure: as §1, §2

[5] = system: E. coli MC4100; assay: MIC; type: cell-based, Escherichia coli; settings: for MIC in combination with PAβN: + 25 µg/mL PAβN
Procedure: as §1, §2

[6] = system: E. coli MC4100; assay: Bactericidal effect in the uptake assay (CFU counts); type: cell-based, Escherichia coli; settings: for dCFU (Δlog10 CFU/mL, count with drug minus growth control): time 0 h, single replicates; for dCFU (Δlog10 CFU/mL, count with drug minus growth control) / bacterial inhibition, less than the control without antibiotic: 200 μM drug; for bacterial inhibition, less than the control without antibiotic: 4-h time point, MHBCA, inoculum 8.5 log10 CFU/mL
Description: The bactericidal effect determined at each time point was the difference in the concentration of bacteria in the assay tube with antibiotic and that measured in the growth control tube without drug (ΔLog10 CFU/mL). The normal distribution of the data was verified with the Shapiro–Wilk test and the statistical analysis was a comparison of repeated measures ANOVA (*p ≤ 0.05, **p ≤ 0.01, ***p ≤ 0.001) between each time point relatively to the 0-h time point.

[7] = target: T1, purified PBP3 of P. aeruginosa (PaPBP3) (Pseudomonas aeruginosa, UniProt G3XD46); assay: biochemical; type: binding
T1 construct: (residues 53 to 579) from P. aeruginosa ATCC 27853 (PaPBP3); His6 (C); made in house; host or cells: E. coli BL21 DE3
Procedure: The PBP binding assay was done as described previously[36],[56],[57]. For each antibiotic concentration tested, a quantity of 25 to 40 μg of membrane preparation was used as the source of PBPs, depending on the species. For the purified PaPBP3, 150 ng was used in the assay. First, increasing concentrations of the test antibiotic was added to the membrane or purified PaPBP3 preparations and incubated for 10 min at 30 °C. The reporter molecule Bocillin FL was then added at 12.5 μM for the membrane PBPs preparations and at 500 nM for the pure PaPBP3 samples for an additional 20 min at 30 °C. All reactions were stopped with the addition of the Laemmli-loading buffer (Bio-Rad) containing fresh β-mercaptoethanol (Sigma). All reactions were then heated at 100°C for 3 min before migration on SDS-polyacrylamide discontinuous gel system (7.5% stacking and 10% separating). Control samples without Bocillin FL were also included to highlight autofluorescent proteins that are not PBPs.
To be able to visualize labeled PBPs after electrophoresis, gels were rinsed in water and fixed in a solution of 50% methanol and 7% acetic acid for 30 min. The fluorescent images of gels were obtained with the Typhoon FLA 9500 instrument (GE-Healthcare Bio-Sciences Inc., Baie-d’Urfé, QC, CA) using a 473 nm excitation wavelength. To obtain quantifiable data, the software Quantity One 1D analysis was used (version 4.6.6; Bio-Rad Laboratories, Richmond, CA). The volume (intensity × constant area) of each PBP was measured. […] All IC50 data were obtained from at least two independent PBP binding assays using two different sets of compound concentrations using a linear regression.

[8] = Escherichia coli, MC4100, MC4100, ID-MHBCA (−), read-out: MIC
[9] = Escherichia coli, MC4100, MC4100, MHBCA (+), without PAβN, read-out: MIC
[10] = Escherichia coli, MC4100, MHBCA (+), without PAβN, read-out: MIC
[11] = MC4100, efflux pump mutant table S5, read-out: MIC
[12] = 150 ng PaPBP3, 500 nM Bocillin FL, n = 3, read-out: IC50 PaPBP3 purified

T1 sequence (G3XD46 53-579): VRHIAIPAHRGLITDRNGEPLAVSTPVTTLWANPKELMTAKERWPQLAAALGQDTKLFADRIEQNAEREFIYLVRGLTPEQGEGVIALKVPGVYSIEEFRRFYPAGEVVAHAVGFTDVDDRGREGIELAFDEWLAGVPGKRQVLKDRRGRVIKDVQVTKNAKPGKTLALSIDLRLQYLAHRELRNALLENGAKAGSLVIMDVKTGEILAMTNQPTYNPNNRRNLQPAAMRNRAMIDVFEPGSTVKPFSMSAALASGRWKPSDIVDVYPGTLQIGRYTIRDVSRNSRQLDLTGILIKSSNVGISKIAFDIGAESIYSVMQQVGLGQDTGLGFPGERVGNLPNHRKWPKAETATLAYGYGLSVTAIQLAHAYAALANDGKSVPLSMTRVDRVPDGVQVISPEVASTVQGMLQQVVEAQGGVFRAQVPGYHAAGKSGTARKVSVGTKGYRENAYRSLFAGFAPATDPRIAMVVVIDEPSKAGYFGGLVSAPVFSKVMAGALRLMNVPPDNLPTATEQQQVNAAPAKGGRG

SMILES | MIC ([1]; Escherichia coli, ID-MHBCA) [µM] | MIC ([1]; Escherichia coli, MHBCA) [µM] | MIC ([2]; Escherichia coli, ID-MHBCA) [µM] | MIC ([2]; Escherichia coli, MHBCA) [µM] | MIC ([3]; Escherichia coli, ID-MHBCA) [µM] | MIC ([3]; Escherichia coli, MHBCA) [µM] | MIC ([4]; Escherichia coli) [µM] | MIC [5, 8] [µM] | MIC [5, 9] [µM] | MIC [5, 10] [µM] | MIC ratio unconjugated β-lactam/conjugate ([5]; MC4100, ID-MHBCA) | MIC in combination with PAβN ([5]; MC4100, MHBCA) [µM] | MIC [5, 11] [µM] | dCFU (Δlog10 CFU/mL, count with drug minus growth control) ([6]; ID FALSE (MHBCA)) | dCFU (Δlog10 CFU/mL, count with drug minus growth control) ([6]; ID TRUE (ID-MHBCA)) | MIC ([3]; MHBCA) [µM] | MIC ratio unconjugated β-lactam/conjugate ([5]; MC4100, MHBCA) | bacterial inhibition, less than the control without antibiotic [6] | IC50 [7, 12] [nM] | IC50 ratio βL/SID-βL, PaPBP3 purified [7] | further results
O=C(CCC(=O)N(CCCCNC(=O)c1cccc(O)c1O)CCCNC(=O)c1cccc(O)c1O)NCCCCCN(O)C(=O)CCCC(=O)NC(C(=O)NC1C(=O)N2C(C(=O)O)=C(Cl)CSC12)c1ccccc1 (stereo not shown) [MCEF, mixed ligand bis-catechol-mono-hydroxamate-cefaclor] | 1.6 (≈ 1.73 µg/mL) | 13 (≈ 14.1 µg/mL) | > 200 | 13 (≈ 14.1 µg/mL) | > 200 | 13 (≈ 14.1 µg/mL) | 25 (≈ 27 µg/mL) | > 200 | 6.3 to 25 (≈ 6.81 to 27 µg/mL) | 6.3 (≈ 6.81 µg/mL) | < 0.016 | > 200 | 6.3 (≈ 6.81 µg/mL) | 0.157 and -0.07022 and 0.01569 and -0.00717 | 0.0557 and -0.2291 and -0.2621 | – | – | – | – | – | –
N[C@@H](C(=O)N[C@@H]1C(=O)N2C(C(=O)O)=C(Cl)CS[C@H]12)c1ccccc1 [CEF, cefaclor, reference compound] | 6.3 (≈ 2.32 µg/mL) | 6.3 (≈ 2.32 µg/mL) | 6.3 (≈ 2.32 µg/mL) | 6.3 (≈ 2.32 µg/mL) | 25 (≈ 9.2 µg/mL) | 13 (≈ 4.78 µg/mL) | 13 (≈ 4.78 µg/mL) | 3.1 (≈ 1.14 µg/mL) | 6.3 (≈ 2.32 µg/mL) | – | – | 13 | – | 0.07784 and -0.144 and -0.0313 | -0.00308 and -0.2509 and -0.2737 | – | – | – | – | – | –
O=C(CN(CCCCNC(=O)c1cccc(O)c1O)C(=O)c1cccc(O)c1O)NC(C(=O)NC1C(=O)N2C(C(=O)O)=C(Cl)CCC12)c1ccccc1 (stereo not shown) [BLOR, bis-catechol (azotochelin)-loracarbef] | 0.012 (≈ 0.009 µg/mL) | 0.05 (≈ 0.0375 µg/mL) | ≤ 0.003 | ≤ 0.003 | 0.012 (≈ 0.009 µg/mL) | 0.1 to 0.4 (≈ 0.075 to 0.3 µg/mL) | 50 (≈ 37.5 µg/mL) | 0.006 (≈ 0.0045 µg/mL) | 0.012 (≈ 0.009 µg/mL) | 0.024 (≈ 0.018 µg/mL) | 512 | 0.2 | 0.024 (≈ 0.018 µg/mL) | 0.04788 and 0.3837 and 0.3931 | -0.2509 and -0.1259 and 0.08749 and -0.2979 and -0.04259 | 0.1 (≈ 0.075 µg/mL) | 256 | ~ 1.2 log10 CFU/mL | 380 ± 70 | 23 | dCFU ([6]; ID FALSE (MHBCA), time 8 h): -3.459; dCFU ([6]; ID FALSE (MHBCA), time 10 h): -3.652; dCFU ([6]; ID FALSE (MHBCA), time 24 h): -3.754
N[C@@H](C(=O)N[C@@H]1C(=O)N2C(C(=O)O)=C(Cl)CC[C@H]12)c1ccccc1 [LOR, loracarbef, reference compound] | – | – | – | – | – | – | – | – | – | – | – | 6.3 | 3.1 (≈ 1.08 µg/mL) | 0.02669 and 0.4114 and -0.0313 | -0.2509 and -0.1259 and -0.06378 | 6.3 (≈ 2.2 µg/mL) | – | ~ 1.2 log10 CFU/mL | 8600 ± 3600 | – | MIC ([1]; ID-MHBCA): 6.3 µM (≈ 2.2 µg/mL); MIC ([1]; MHBCA): 6.3 µM (≈ 2.2 µg/mL); MIC ([2]; ID-MHBCA): 6.3 µM (≈ 2.2 µg/mL); MIC ([2]; MHBCA): 3.1 µM (≈ 1.08 µg/mL); MIC ([3]; ID-MHBCA): 13 µM (≈ 4.55 µg/mL); MIC ([4]; ΔtonB, MHBCA): 6.3 µM (≈ 2.2 µg/mL); MIC ([5]; MC4100, ID-MHBCA (−), read-out: MIC): 3.1 µM (≈ 1.08 µg/mL); MIC ([5]; MC4100, MHBCA (+), without PAβN, read-out: MIC): 3.1 µM (≈ 1.08 µg/mL)
CC1(C)S[C@@H]2[C@H](NC(=O)[C@H](N)c3ccccc3)C(=O)N2[C@H]1C(=O)O [AMP, ampicillin, reference compound] | – | – | – | – | – | – | – | – | – | – | – | – | – | – | – | – | – | – | – | – | IC50 [7]: 74 ± 29 nM
CC1(C)SC2C(NC(=O)C(NC(=O)CN(CCCCNC(=O)c3cccc(O)c3O)C(=O)c3cccc(O)c3O)c3ccccc3)C(=O)N2C1C(=O)O (stereo not shown) [BAMP, bis-catechol (azotochelin)-ampicillin] | 0.05 (≈ 0.0375 µg/mL) | 0.2 (≈ 0.15 µg/mL) | 0.006 (≈ 0.0045 µg/mL) | ≤ 0.003 | 0.024 (≈ 0.018 µg/mL) | 0.1 to 0.4 (≈ 0.075 to 0.3 µg/mL) | 50 (≈ 37.5 µg/mL) | 0.024 (≈ 0.018 µg/mL) | – | – | 512 | 0.2 | – | – | – | 0.2 (≈ 0.15 µg/mL) | 256 | – | 76 ± 31 | 0.97 | MIC ([4]; ΔtonB, MHBCA): 50^c μM; MIC ([5]; Escherichia coli, MC4100): 0.05 µM (≈ 0.0375 µg/mL)
